Earlier results on 16 molecules are cited in patent US10045960B2, “Coating composition and medical device” (TERUMO KABUSHIKI KAISHA, priority 2012, dated 2018).

The conditions of this data set: hydropathy index according to Kyte and Doolittle, J. Mol. Biol., 157, 105-132 (1982).
Take `C[C@H](N)C(=O)O` [Alanine]: the “H.I. (hydropathy index)” value is recorded as 1.8.

For the molecule `N=C(N)NCCC[C@H](N)C(=O)O` [Arginine], the “H.I. (hydropathy index)” value is on record as −4.5.

Regarding `NC(=O)C[C@H](N)C(=O)O` [Asparagine], the “H.I. (hydropathy index)” value is given as −3.5.

For `N[C@@H](CC(=O)O)C(=O)O` [Aspartic acid], the “H.I. (hydropathy index)” value is given as −3.5.

For `N[C@@H](CS)C(=O)O` [Cysteine], the “H.I. (hydropathy index)” value is reported as 2.5.

For `N[C@@H](CCC(=O)O)C(=O)O` [Glutamic acid], the “H.I. (hydropathy index)” value was −3.5.

With `N[C@@H](Cc1c[nH]cn1)C(=O)O` [Histidine], the “H.I. (hydropathy index)” value is recorded as −3.2.

As to `CC[C@H](C)[C@H](N)C(=O)O` [Isoleucine], the “H.I. (hydropathy index)” value was 4.5.

For `NCCCC[C@H](N)C(=O)O` [Lysine], the “H.I. (hydropathy index)” value is recorded as −3.9.

For `CSCC[C@H](N)C(=O)O` [Methionine], the “H.I. (hydropathy index)” value is 1.9.

`N[C@@H](Cc1ccccc1)C(=O)O` [Phenylalanine]: the “H.I. (hydropathy index)” value was 2.8.

As to `N[C@@H](CO)C(=O)O` [Serine], the “H.I. (hydropathy index)” value is −0.8.

`C[C@@H](O)[C@H](N)C(=O)O` [Threonine]: the “H.I. (hydropathy index)” value is reported as −0.7.

For `N[C@@H](Cc1c[nH]c2ccccc12)C(=O)O` [Tryptophan], the “H.I. (hydropathy index)” value is on record as −0.9.

On to `N[C@@H](Cc1ccc(O)cc1)C(=O)O` [Tyrosine], for which the “H.I. (hydropathy index)” value was −1.3.

Take `CC(C)[C@H](N)C(=O)O` [Valine]: the “H.I. (hydropathy index)” value is 4.2.
